pEC50, pIC50, pKi: −log10 of the molar value. Entries after “also recorded” stand apart in the source; their conditions may differ. Like-named read-outs stand apart in the source and are kept apart here.
Experiments:
[1] = system: HL60 cells; assay: Leukemic cell differentiation (NBT and CD14); type: cell-based; settings: Homo sapiens, HL-60, 120 h; NBT and CD14 assays; differentiation into macrophages/monocytes; 5 days
Method: Leukemic cell differentiation. […] Ligands were added in ethanol vehicle (1%) at various concentrations for 5 days without changing the media. On the fifth day, cells were harvested and assayed for markers of differentiation. […] Cells that bioreduce the dye turn blue-black and represent differentiated cells, and are counted. Undifferentiated cells are clear and are also counted; percent differentiated cells are then determined from the two numbers.

[2] = system: LNCaP prostate cancer cells; assay: Prostate cancer cell growth inhibition (BrdU); type: cell-based; settings: Homo sapiens, 96 h, BrdU incorporation, 4-day assay
Method: (§1) Cancer cell growth inhibition and analysis. SK-BR-3 human breast cancer cells (ATCC) and LNCaP human prostate cancer cells (ATCC) were plated in 96-well, flat-bottomed microtiter plates (CoStar) with 50 μL serum-containing media/well. […] Cell plating numbers (cells/well) were as follows: SK-BR-3, 3000 (3-day assays); LNCAP, 1000 (4-day assays). Cell plating number was determined by growth rate of each cell line and duration of the assay. […] Cells were allowed to adhere for 24 h prior to compound addition as follows:
(§2) Ten-fold serial dilutions were performed with changing of pipette tips between each dilution. Diluted compounds were then added to the cells (50 μL/well) to final concentrations of 1×10^-5 -1×10^-11 M (1% ethanol) in triplicate. […] BrdU (5-bromo-2'-deoxyuridine) incorporation was analyzed as a measure of DNA replication (Cell Proliferation ELISA kit, Boehringer) and absorbance was measured at 450 nm.
(§3) One row of wells contained media only and these absorbance values were averaged as background and then subtracted from absorbance values from each individual well containing cells. The average values were then determined for each triplicate and plotted vs ligand concentration. The average vehicle (1% ethanol) value was determined, less the background average. […] Potency (EC50) was determined as the concentration of compound that elicited half-maximal response.

[3] = system: SK-BR-3 breast cancer cells; assay: Breast cancer cell growth inhibition (BrdU); type: cell-based; settings: Homo sapiens, SK-BR-3, 72 h, BrdU incorporation, 3-day assay
Method: as §1, §2, §3

[4] = system: Normal human epidermal keratinocytes (NHEK); assay: Keratinocyte growth inhibition (BrdU); type: cell-based; settings: 96 h, BrdU incorporation, day 4
Method: as §2, §3
Keratinocyte growth inhibition. Normal human epidermal keratinocytes (NHEK) were grown according to vendor specifications (Clonetics, San Diego). BrdU assays were performed as above except that cells were plated at 200 cells per well (96-well plates) and fresh media with ligands were added on day 0 and day 2; BrdU assays were run on day 4.

[5] = In vivo calcium potential: serum calcium (colorimetric); design: species or system mouse (Balb/c mice); settings: oral gavage
Method: (§4) In vivo gene regulation and calcium potential. Balb/c mice (male 6-8 weeks old, ~20 g) were fed a vitamin D deficient, calcium replete diet (Purina Mills) for 7-14 days prior to receiving treatment with compounds. Animals were housed under normal lighting. Compounds were administered in sesame oil vehicle with 4% ethanol by oral gavage (0.1 mL dose volume). […] On the final day of dosing, 4-6 h after the final dose, animals were euthanized, the kidneys removed and blood collected. Serum was prepared from the blood and calcium determination performed by colorimetric assay (Sigma). […] 15-20 μg total RNA was utilized in Northern blot analysis using rat 24(OH)ase probe; GAPDH probe was used to normalize for RNA loading, as described previously (Id). Quantitation was by PhosphorImager analysis.

[6] = biological target: serum DBP; assay: Serum DBP binding, rat or human serum, species not given; settings: rat (r) or human (h) serum DBP, not marked (r)/(h); competition with [3H]-25(OH)D3
Method: Serum DBP-binding. DPB competition binding assays were performed by a literature method (Dusso et al. 1991). The source of DBP was either human serum (Scantibodies) or rat serum (Gibco-BRL) diluted 1:10,000 in sodium phosphate buffer (pH 7.4). Sera were incubated for 2 h at 4° C. with 2 nM [^3 H]-25(OH)D3 (Amersham) with and withoun unlabeled 25(OH)D3 or 1,25(OH)2D3 (0.01 nM-1 μM), or unlabeled vitamin D mimic compounds (10 nM-10 μM). Bound ligand was separated from unbound ligand with Dextran-coated charcoal in gelatin-phosphate buffer.

[7] = system: 24(OH)ase; assay: In vivo gene regulation: kidney 24(OH)ase RNA induction (Northern blot); design: species or system mouse (Balb/c mice); settings: for Relative 24(OH)ase activity: oral gavage, vehicle 1, corrected with GAPDH
Method: as §4

[8] = system: LNCaP tumor; assay: In vivo efficacy: LNCaP tumor growth in nude mice; design: species or system LNCaP human prostate cancer cells in nude mice
Method: (§5) In vivo efficacy. Nude mice (6 weeks old) were housed under normal light and fed a vitamin D deficient, calcium replete diet (Purina Mills) for 7-10 days prior to injection with LNCaP cells. Tumors were allowed to grow 2-4 weeks prior to dosing. Compounds or vehicle were administered in sesame oil by oral gavage (0.1 mL dose volume). Dosing was daily for the extent of the study. Tumor measurements were taken on days 10 and 15. Animals were then euthanized, and kidneys and blood retrieved. Serum calcium measurements were taken from the final bleed and an intermediate bleed on day 10. […] Average animal weight change per group was as follows: Vehicle, -7.2%; Compound 4 (3 mg/kg), -2.1%; Compound 4 (10 mg/kg), -8.9%.

[9] = Serum calcium in LNCaP tumor-bearing nude mice; type: in vivo; settings: 3 mg/kg and 10 mg/kg, days 10 and 15
Method: FIGS. 1A and 1B depict the In vivo efficacy of compound 4 in LNCaP tumor growth inhibition in nude mice without hypercalcemia.
as §5

[10] = Animal weight change in LNCaP tumor-bearing nude mice; type: in vivo; settings: vehicle -7.2%
Method: as §5

[11] = biological target: T1, human VDR (Homo sapiens, UniProt P11473); assay: biochemical
T1 sequence (P11473 1-427): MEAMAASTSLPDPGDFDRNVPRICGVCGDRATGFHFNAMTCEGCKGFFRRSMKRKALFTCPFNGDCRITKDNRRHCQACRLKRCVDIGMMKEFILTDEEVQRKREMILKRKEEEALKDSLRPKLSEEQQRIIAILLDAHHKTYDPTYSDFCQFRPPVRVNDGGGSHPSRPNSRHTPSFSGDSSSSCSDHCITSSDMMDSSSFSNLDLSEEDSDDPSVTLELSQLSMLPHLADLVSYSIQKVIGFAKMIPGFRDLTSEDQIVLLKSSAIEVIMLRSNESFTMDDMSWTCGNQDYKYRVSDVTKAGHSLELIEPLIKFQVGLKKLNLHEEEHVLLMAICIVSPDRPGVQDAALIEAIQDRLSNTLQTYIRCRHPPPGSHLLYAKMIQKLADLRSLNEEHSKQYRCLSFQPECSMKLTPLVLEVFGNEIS
Method: VDR binding. […] Cell extracts from yeast transformants were prepared and full length VDR expression was confirmed by Western blotting. […] Binding buffer contained 10 mM Tris,pH 7.5, 1 mM DTT, and 0.4 M KCl; wash buffer contained 10 mM Tris, 100 mM KCl, and 10 mM CHAPS detergent.

[12] = biological target: T1, human VDR; assay: Cotransactivation (CTF) in Hep G2 cells, VDRE-luciferase reporter; type: cell-based; design: expressed in transfected cells; host or cells: Hep G2 (human hepatoma, ATCC)
Method: Cotransactivation properties. […] Reporter and receptor containing vectors were transfected along with carrier DNA and β-galactosidase internal control plasmid as previously described except that Hep G2 cells were used (Id). Briefly, transfections were performed in triplicate in 96-well gelatin-coated plates with a total of 20 μg/mL DNA (0.5 μg receptor expression vector, 5 μg reported plasmid, 5 μg β-galactosidase plasmid, and pGEM carrier DNA to 20 μg) of calcium phosphate-HEPES transfection solution. […] Luciferase values were normalized with β-galactosidase values to control for variable transfection efficiencies.

[13] = cotransfected VDRE-luciferase reporter and human VDR in Hep G2 cells, read-out: CTF EC50

C=C1/C(=C\C=C2/CCC[C@]3(C)[C@@H]([C@H](C)CCCC(C)(C)O)CC[C@@H]23)C[C@@H](O)C[C@@H]1O [1,25(OH)2 D3, 1,25-dihydroxyvitamin D3, reference compound]
pEC50 [1]: 8.00 to 8.10
pEC50 [2]: 8.70
pEC50 [3]: 8.00 to 8.10
pEC50 [4]: 7.52 to 8.00
Serum Ca2+ ([5]; 3-day treatment, 15 μg/kg, statistically different than vehicle (p < 0.01)): > 15 mg/dL
Serum Ca2+ ([5]; 5-day treatment, 2 μg/kg): 9.7 ± 0.6 mg/dL
Serum Ca2+ ([5]; 5-day treatment, 5 μg/kg, statistically different than vehicle (p < 0.01)): 10.5 ± 0.6 mg/dL

Cc1cc(C2(c3ccc(OCC(=O)C(C)(C)C)c(C)c3)CCCCC2)ccc1OCC(=O)C(C)(C)C [Compound 4, 1,1-bis[3-methyl-4-(3,3-dimethyl-2-oxobutoxy)phenyl]cyclohexane]
pIC50 [6]: < 5.00
pEC50 [1]: 5.70
pEC50 [2]: 5.70
pEC50 [3]: 5.70
pEC50 [4]: 6.30
Ratio 24(OH)ase/Ca2+ ([7]; 3-day treatment, 10 mg/kg): 1.48
Ratio 24(OH)ase/Ca2+ increase ([7]; 3-day treatment, 10 mg/kg): 16.9
Relative 24(OH)ase activity ([7]; 3-day treatment, 10 mg/kg): 13.5
Ratio 24(OH)ase/Ca2+ ([7]; 3-day treatment, 30 mg/kg): 1.18
Ratio 24(OH)ase/Ca2+ increase ([7]; 3-day treatment, 30 mg/kg): 15.1
Relative 24(OH)ase activity ([7]; 3-day treatment, 30 mg/kg): 10.6
Ratio 24(OH)ase/Ca2+ ([7]; 5-day treatment, 10 mg/kg): 3.38
Ratio 24(OH)ase/Ca2+ increase ([7]; 5-day treatment, 10 mg/kg): 61.6
Relative 24(OH)ase activity ([7]; 5-day treatment, 10 mg/kg): 30.8
Ratio 24(OH)ase/Ca2+ ([7]; 5-day treatment, 30 mg/kg): 5.31
Ratio 24(OH)ase/Ca2+ increase ([7]; 5-day treatment, 30 mg/kg): 35.8
Relative 24(OH)ase activity ([7]; 5-day treatment, 30 mg/kg): 53.7
separation of target gene induction from serum calcium ([7]; mice, vs 1,25(OH)2 D3): greater separation of these effects for 4 than for 1,25(OH)2 D3; also recorded: good separation of target gene regulation from serum calcium elevation
Serum Ca2+ ([5]; 3-day treatment, 10 mg/kg): 9.1 ± 0.5 mg/dL
Serum Ca2+ ([5]; 3-day treatment, 30 mg/kg): 9.0 ± 0.6 mg/dL
Serum Ca2+ ([5]; 5-day treatment, 10 mg/kg): 9.1 ± 0.2 mg/dL
Serum Ca2+ ([5]; 5-day treatment, 30 mg/kg): 10.1 ± 0.5 mg/dL
tumor growth rate vs control group ([8]; 3 mg/kg and 10 mg/kg oral gavage daily): decreased tumor growth rates as compared to the control group
tumor size vs vehicle (FIG. 1A) ([8]; 10 and 15 days post dosing): smaller
serum calcium levels / hypercalcemia (FIG. 1B) [9]: hypercalcemia was not observed; also recorded: normal serum calcium levels
Average animal weight change per group ([10]; 3 mg/kg): -2.1%
Average animal weight change per group ([10]; 10 mg/kg): -8.9%
pKi [11]: < 5.00
pEC50 [12]: 5.66

CCC(CC)(c1ccc(OCC(=O)C(C)(C)C)c(C)c1)c1ccc(OCC(=O)C(C)(C)C)c(C)c1 [Compound 7, 3,3-bis[3-methyl-4-(3,3-dimethyl-2-oxobutoxy)phenyl]pentane]
pIC50 [6]: < 5.00
pEC50 [1]: 6.10
pEC50 [2]: 6.52
pEC50 [3]: 6.10
pEC50 [4]: 6.30
Ratio 24(OH)ase/Ca2+ ([7]; 3-day treatment, 100 μg/kg): 0.63
Ratio 24(OH)ase/Ca2+ increase ([7]; 3-day treatment, 100 μg/kg): 5.17
Relative 24(OH)ase activity ([7]; 3-day treatment, 100 μg/kg): 6.0
Ratio 24(OH)ase/Ca2+ ([7]; 3-day treatment, 500 μg/kg): 0.52
Ratio 24(OH)ase/Ca2+ increase ([7]; 3-day treatment, 500 μg/kg): 1.88
Relative 24(OH)ase activity ([7]; 3-day treatment, 500 μg/kg): 6.0
Serum Ca2+ ([5]; 3-day treatment, 100 μg/kg): 9.6 ± 0.5 mg/dL
Serum Ca2+ ([5]; 3-day treatment, 500 μg/kg, statistically different than vehicle (p < 0.01)): 11.5 ± 0.9 mg/dL
pKi [11]: < 5.00
pEC50 [12, 13]: 6.22

CCC(CC)(c1ccc(OCC(=O)C(C)(C)C)c(C)c1)c1ccc(OCC2CO2)c(C)c1 (stereo not drawn) [Compound 9, 3-[3-methyl-4-(2,3-epoxypropoxy)phenyl]-3-[3-methyl-4-(3,3-dimethyl-2-oxobutoxy)phenyl]pentane]
pIC50 [6]: < 5.00
pEC50 [1]: 6.82
pEC50 [2]: 7.00
pEC50 [3]: 6.82
pEC50 [4]: 6.70
pKi [11]: < 5.00
pEC50 [12, 13]: 7.22

CCC(CC)(c1ccc(OCC(=O)C(C)(C)C)c(C)c1)c1ccc(OCC(O)C(C)(C)C)c(C)c1 (stereo not drawn) [Compound 11, 3-[3-methyl-4-(2-hydroxy-3,3-dimethylbutoxy)phenyl]-3-[3-methyl-4-(3,3-dimethyl-2-oxobutoxy)phenyl]pentane]
pIC50 [6]: < 5.00
pEC50 [1]: 6.40
pEC50 [2]: 6.30
pEC50 [3]: 6.30
pKi [11]: < 5.00
pEC50 [12]: 6.40

CCC(CC)(c1ccc(OCC(O)CO)c(C)c1)c1ccc(OCC(O)C(C)(C)C)c(C)c1 (stereo not drawn) [Compound 13, 3-[3-methyl-4-(2,3-dihydroxypropoxy)phenyl]-3-[3-methyl-4-(2-hydroxy-3,3-dimethylbutoxy)phenyl]pentane]
pIC50 [6]: < 5.00
pEC50 [1]: 7.30 to 7.52
pEC50 [2]: 7.70
pEC50 [3]: 7.30 to 7.52
pEC50 [4]: 7.30 to 7.52

From patent publication US6218430A, “Vitamin D3 mimics” (Ligand Pharmaceuticals Incorporated, priority 1998, dated 2001)
